Measured values taken from patent US5614192A, “T cell receptor peptides as therapeutics for immune-related disease” (Connective Therapeutics, Inc., priority 1993, dated 1997).
Several values for one entry are separate records, joined by “and”; a condition that tells them apart may be missing. Equal values may be shown once. Marks after values point to notes of the source that are not given here. Ends that are not written are not given here.

Key:
[1] = system: Vβ8-44-54 reactive T cell clones; assay: Specificity of Vβ8-44-54 reactive T cell clones, proliferation (Table 37); assay type: cell-based, rat
Procedure: Proliferation assays: Proliferation assays were performed in 96-well microtiter plates. 2×10^4 T cells and 10^6 irradiated thymocytes/well were incubated with stimulation medium only, ConA, or antigen at 37C in 7% CO2. The cultures were incubated for 72 h, the last 18 h in the presence of 0.5 Bq ^3 H-Tdr. The cells were harvested onto glass fiber filters and TCR uptake was assessed by liquid scintillation. Mean CPM wre calculated from triplicate wells. The standard deviation from replicate wells varied <10% from the mean values. In some experiments, azide free antibodies to MHC I (OX-18) or MHC II (OX-6, anti-I-A and OX-17, anti-I-E) were added to the cultures to evaluate which MHC molecules were used to restrict the T cell response to TCR Vβ8-44-54 peptide.
Isolation of Vβ8-44-54 reactive T cell clones. To characterize the anti-TCR peptide response on the clonal level, ten clones were isolated and characterized from the initial T cell line. As is shown in Table 37, each of the clones responded strongly to the Vβ8-44-54 peptide with stimulation indices ranging from 10× to 1300×, and weakly or not at all to the Vβ8.2-39-59 or Vβ8.6-39-59 peptides. Three of the four clones challenged with all three of the peptides responded selectively to the consensus Vβ8-44-54 peptide, whereas only one clone (B7) reflected the T cell line pattern of response characterized by response to Vβ8-44-54 >Vβ8.6-39-59 >Vβ8.2-39-59 (Table 37). Loss of viability of the clones precluded individual testing of EAE-protective activity.

popliteal LN cells = assay: Proliferation of LN cells after EAE induction and TCR peptide treatment (Table 23); assay type: cell-based, Lewis rats
Procedure: The proliferative responses and specificity of T cells in the draining LN (popliteal) of rats treated with TCR Vβ8(39-59) peptide for EAE on day 13 after disease induction were examined (Table 23). On day 0, Lewis rats received an EAE-inducing regimen of GP-BP+CFA SC into their hind footpads. […] On day 20, about 7 days after onset of EAE, popliteal LNs were removed and T cell proliferative activity in response to the indicated antigens or mitogens were tested directly.
Results are shown as net ^3 Hthymidine incorporation of 5 ×

EAE [2] = details: rat, in vivo
Procedure: Male Lewis rats (225250 g) were challenged SC with 100 μg TCR

EAE [3] = assay: Prevention, suppression and treatment of EAE with TCR Vβ8-39-59 peptide (Table 25); assay type: in vivo, Lewis rats
DTH (ear thickness) = assay: DTH to T cells and TCR peptides after clone transfer or peptide immunization (Table 32); assay type: in vivo, rats; details: 50 μg TCR peptide
Procedure: Transfer of DTH and protection: Delayed type hypersensitivity reactions were measured by the ear swelling assay (Offner et al., J. Neuroimmunol. 9: 147)) 24 and 48 h after injection i.d. of 20 μg antigen.
Rats received 5 million activated clone C45569 or clone C5GpBP

Gp-(S87-99) = target: T1, Gp-(S87-99) (Cavia porcellus, UniProt P25188); assay: Direct ELISA, antibody reactivity (Example VII); assay type: binding, guinea pig
T1 construct: made in house; host or cells: chemical solid-phase synthesis

Gp-S49S = target: T2, Gp-S49S (Cavia porcellus, UniProt P25188); assay: Direct ELISA, antibody reactivity (Example VII); assay type: binding, guinea pig
T2 construct: Peptide Gp-S49S defines region 69-84 of GPBP and has a C-terminal glycine; made in house; host or cells: chemical solid-phase synthesis

TCR Vβ 8(39-59) = assay type: binding, rat
passive EAE = assay: Treatment of passively induced EAE with TCR Vβ8 peptides (FIGS. 21A, 22); assay type: in vivo, rats
Gp-S53 = target: T3, Gp-S53 (Cavia porcellus, UniProt P25188); assay: Direct ELISA, antibody reactivity (Example VII); assay type: binding, guinea pig
T3 construct: Gp-S53 (residues 75-84); made in house; host or cells: chemical solid-phase synthesis

DH reaction = assay: Delayed hypersensitivity (DH) ear swelling to TCR peptide (Example VI); assay type: in vivo, Lewis rats; details: to 50 μg TCR Vβ8(39-59) in Vβ8(39-59)-immunized rats
Procedure: The Vβ8(39-59)-immunized rats developed both specific antibodies to the Vβ8(39-59) peptide and a delayed hypersensitivity (DH) response of 0.17 mm ear swelling to 50 μg TCR Vβ8(39-59) peptide.

[4] = peptide/CFA s.q., Day 0, listed as TCR
[5] = TCR day 0, Gp-S(87-99) d. 44, bleed d. 65, 1:320
[6] = TCR peptide d. 0, Gp-S49S d. 48, bleed d. 74, 1:80
[7] = TCR d. 0, Gp-S49S d. 48, bleed d. 74

In the case of “DMGHGLRLIHYSYDVNSTEKG [TCR Vβ8(39-59), 21-amino acid CDR2 peptide of rat TCR Vβ8]”, the “Proliferation Response” value ([1]; Clone B3) was 1.1 CPM/1000, the “Proliferation Response” value ([1]; Clone B7) was 3 CPM/1000 and the “Proliferation Response” value ([1]; Clone B11) was 0.7 CPM/1000. For the same sequence, the “Proliferation Response” value ([1]; Clone D1) was 0.8 CPM/1000, the “Proliferation Response” value ([1]; Line) was 102 CPM/1000 and the “T Cell Proliferation” value (popliteal LN cells; LN cells day 20 of Control rats (saline day 13)) was 31 cpm × 10^-3. The “T Cell Proliferation” value (popliteal LN cells; LN cells of rats given TCR Vβ 8(39-59) 50 μg ID day 13) was 30 cpm × 10^-3, the “T Cell Proliferation” value (popliteal LN cells; LN cells of rats given TCR Vβ 8(39-59) 100 μg SC (in CFA) day 13) was 39 cpm × 10^-3 and the “Clinical Signs of EAE” value (EAE [2]) was “None”. For the same sequence, the maximum clinical severity (EAE [3]; 50 μg i.d. on day 0, 7 or 11, controls 3.4) was 1.7-1.8, the “duration of EAE” value (EAE [3]; 50 μg i.d. on day 0, 7 or 11, controls 6.6 days) was 3 to 4 days and the EAE/TOTAL (EAE [3]; i.d. in saline, Day 0) was 5/6. For the same sequence, the EAE/TOTAL (EAE [3]; i.d., 10 μg, day of onset) was 6/6, the “Max Clin. Signs” value (EAE [3]; i.d., 10 μg, day of onset) was 2.8 ± 0.4 and the Onset (EAE [3]; i.d., 10 μg, day of onset) was 12. For the same sequence, the Duration (EAE [3]; i.d., 10 μg, day of onset, listed as TCR) was 4.0 ± 0.9 days, the Duration (EAE [3]; i.d., 10 μg, day of onset, listed as TCR peptide) was 4.0 days and the EAE/TOTAL (EAE [3]; i.d., 50 μg, day of onset) was 9/9. The “Max Clin. Signs” value (EAE [3]; i.d., 50 μg, day of onset) was 2.8 ± 0.3, the Onset (EAE [3]; i.d., 50 μg, day of onset) was 12 and the Duration (EAE [3]; i.d., 50 μg, day of onset, listed as TCR) was 3.1 ± 0.3 days. The Duration (EAE [3]; i.d., 50 μg, day of onset, listed as TCR peptide) was 3.1 days, the Duration (EAE [3]; i.d., Day 0) was 3.0 ± 1.8 days and the “Max Clin. Signs” value (EAE [3]; i.d., Day 0) was 1.8 ± 1.0. For the same sequence, the Onset (EAE [3]; i.d., Day 0) was 15, the Duration (EAE [3]; i.d., Day 7) was 2.0 ± 1.9 days and the EAE/TOTAL (EAE [3]; i.d., Day 7) was 4/6. For the same sequence, the “Max Clin. Signs” value (EAE [3]; i.d., Day 7) was 1.7 ± 1.4, the Onset (EAE [3]; i.d., Day 7) was 14 and the Duration (EAE [3]; i.d., Day before onset) was 2.5 ± 2.1 days. The EAE/TOTAL (EAE [3]; i.d., Day before onset) was 6/8, the “Max Clin. Signs” value (EAE [3]; i.d., Day before onset) was 1.8 ± 1.3 and the Onset (EAE [3]; i.d., Day before onset) was 12. The “rats with onset of EAE completely prevented” value (EAE [3]; injection after GP-MBP challenge but before onset) was 4/19, the “rats with all clinical signs of EAE completely suppressed” value (EAE [3]; injection at the same time as GP-MBP challenge) was 6/19 and the Duration (EAE [3]; peptide/CFA s.q., Day 0) was 2.0 days. For the same sequence, the EAE/TOTAL (EAE [3]; peptide/CFA s.q., Day 0) was 8/13, the “Max Clin. Signs” value (EAE [3]; peptide/CFA s.q., Day 0) was 1.3 and the Onset (EAE [3]; peptide/CFA s.q., Day 0) was 13. For the same sequence, the Duration (EAE [3]; [4]) was 2.0 ± 1.8 days, the “Max Clin. Signs” value (EAE [3]; [4]) was 1.3 ± 1.1 and the Duration (EAE [3]; peptide/CFA s.q., Day -40) was 0 ± 0 days. For the same sequence, the EAE/TOTAL (EAE [3]; peptide/CFA s.q., Day -40) was “complete protection against clinical EAE”, the “Max Clin. Signs” value (EAE [3]; peptide/CFA s.q., Day -40) was 0 ± 0 and the EAE/TOTAL (EAE [3]; peptide/CFA s.q., Day -40, listed as TCR) was 0/20. For the same sequence, the Duration (EAE [3]; peptide/CFA s.q., Day onset) was 3.5 days, the EAE/TOTAL (EAE [3]; peptide/CFA s.q., Day onset) was 20/20 and the “Max Clin. Signs” value (EAE [3]; peptide/CFA s.q., Day onset) was 2.3 ± 0.9. For the same sequence, the Onset (EAE [3]; peptide/CFA s.q., Day onset) was 12, the Duration (EAE [3]; peptide/CFA s.q., Day onset, listed as TCR) was 3.5 ± 1.4 days and the Duration (EAE [3]; peptide/CFA, Day 10) was 3.6 ± 0.9 days. For the same sequence, the EAE/TOTAL (EAE [3]; peptide/CFA, Day 10) was 5/5, the “Max Clin. Signs” value (EAE [3]; peptide/CFA, Day 10) was 2.8 ± 0.4 and the Onset (EAE [3]; peptide/CFA, Day 10) was 13. The “DTH, change in ear thickness 48 h” value (DTH (ear thickness); Immunization None) was 3 ± 1, the “DTH, change in ear thickness 48 h” value (DTH (ear thickness); rats given 5 million C5Gp-BP (Vβ8.2+)) was 6 ± 3 and the “DTH, change in ear thickness 48 h” value (DTH (ear thickness); rats given C455-69) was 17 ± 2. The “DTH, change in ear thickness 48 h” value (DTH (ear thickness); rats immunized with Vβ8.239-59 peptide/CFA) was 39 ± 9, the “DTH, change in ear thickness 48 h” value (DTH (ear thickness); rats immunized with Vβ8.639-59 peptide/CFA) was 27 ± 4 and the “Theoretical Absorbance against Gp-(S87-99) normalized to 1:40” value (Gp-(S87-99); TCR day 0, Gp-S(87-99) d. 44, bleed d. 65) was 784 Absorbance (×10^3). The “Antisera Reactivity Against Gp-(S87-99)” value (Gp-(S87-99); [5]) was 348 Absorbance (×10^3), the “Antisera Reactivity Against Gp-(S87-99)” value (Gp-(S87-99); [6]) was 11 Absorbance (×10^3) and the “increase of anti-S87-99 responses” value (Gp-(S87-99); preimmunized with TCR peptide vs not treated) was greater than 4 fold. The “Theoretical Absorbance against Gp-S49S normalized to 1:40” value (Gp-S49S; [7]) was 1750 Absorbance (×10^3), the “Antisera Reactivity Against Gp-S49S” value (Gp-S49S; [5]) was 38 Absorbance (×10^3) and the “Antisera Reactivity Against Gp-S49S” value (Gp-S49S; [6]) was 875 Absorbance (×10^3). For the same sequence, the “elevation of 26 day antibody responses to Gp-S49S and Gp-S53” value (Gp-S49S; preimmunized with TCR peptide vs rats not treated) was “two to four fold”, the “Antisera Reactivity Against TCR Vβ 8 (39-59)” value (TCR Vβ 8(39-59)) was 629 and 621 and the “severity and duration of passively induced EAE” value (passive EAE; EAE induced by Vβ8.2+ T cell lines specific for BP) was “marked reduction in the severity and duration of EAE”. The “protection from lethal EAE” value (passive EAE; rat, in vivo) was “protected all of the recipients from lethal EAE”, the “Theoretical Absorbance against Gp-S53 normalized to 1:40” value (Gp-S53; [7]) was 910 Absorbance (×10^3) and the “Antisera Reactivity Against Gp-S53” value (Gp-S53; [5]) was 46 Absorbance (×10^3). For the same sequence, the “Antisera Reactivity Against Gp-S53” value (Gp-S53; [6]) was 455 Absorbance (×10^3) and the “delayed hypersensitivity (DH) response, ear swelling” value (DH reaction) was 0.17 mm.
